{"source": "paper PMC9399069", "about": "“Imaging PARP with [^18F]rucaparib in pancreatic cancer models” (European Journal of Nuclear Medicine and Molecular Imaging, 2022)", "key": {"AsPC1 cells [1]": {"tested_on": "AsPC1 cells", "assay": "Protein expression by flow cytometry after PARP inhibitors or DNA-damaging reagents, AsPC1 cells", "format": "cell-based, human", "conditions": "3 h", "experimental": "(§1) Relative expression of PARP1, 2 and 3, ALDH2 and IMPDH2 was determined by flow cytometry. Cells (1 × 10^6 cells/well) were seeded in 96-well plates in growth medium, washed with FACS buffer (PBS, 2% FBS, 1 mM EDTA, 0.1% NaN3) and centrifuged at 500×g for 5 min. Immunostaining was performed using the Foxp3/transcription factor staining buffer set (eBioscience^TM, USA). Intracellular staining was conducted in permeabilisation buffer for 30 min at 4 °C in the dark using the following antibodies: AF488-conjugated anti-PARP-1 (1:100; sc-80070), AF594-conjugated anti-PARP-2 (1:100; sc-393310), anti-PARP-3 (1:100; sc-390771) or anti-PARP-tankyrase-1/2 (1:100; sc-365897) from Santa Cruz Biotechnology Inc. (USA), AF488-conjugated anti-IMPDH2 (1:500; ab-200770) from Abcam plc. (UK) and AF488-conjugated anti-ALDH2 (1:100, ABIN6817568) from Antibodies-online GmbH (UK). Fixable viability dye ef780 (1:4000; eBioscience^TM; 65-0865-14) was used for live and dead cells discrimination. Fixation of immunostained cells was performed for 15 min at room temperature. Flow cytometry was conducted on the CytoFLEX benchtop flow cytometer (Beckman Coulter, USA), with appropriate lasers and filters, positive and negative controls. Data were analysed using FlowJo^TM (Tree Star Inc., BD Biosciences, USA).\n(§2) AsPC1 (1 × 10^5 cells/well) and PSN1 cells (7.5 × 10^4 cells/well) were exposed to methyl methanesulfonate (MMS) or temozolomide (TMZ) (100 μM, in a total of 270 μL growth medium) for 3 h at 37 °C. Additionally, [^18F]rucaparib (500 kBq, 3.6 GBq/μmol; [^TotalF]rucaparib final concentration: 301 nM) or [^18F]olaparib (400 kBq, 8.5 GBq/μmol; [^TotalF]olaparib final concentration: 300 nM) was added, and the cells were incubated at 37 °C for 30 min. Cell culture medium was removed, and cells were washed with PBS. For cell retention, fresh medium (300 μL) was added to the cells. Cells were then further incubated at 37°C for 3 h. Cell culture medium was removed, and the amount of ^18F in the cell lysates was measured as above. Protein expression of the cells after DNA-damaging treatments (or PARP inhibitors 10 μM) was performed using flow cytometry as above."}, "PSN1 cells [2]": {"tested_on": "PSN1 cells", "assay": "Uptake and retention of radiolabelled PARP inhibitors in PSN1 cells treated with DNA-damaging reagents", "format": "cell-based, human", "conditions": "100 μM, 3 h, retention at 3 h", "experimental": "as §2"}, "PSN1 cells [3]": {"tested_on": "PSN1 cells", "assay": "Protein expression by flow cytometry after PARP inhibitors or DNA-damaging reagents, PSN1 cells", "format": "cell-based, human", "conditions": "3 h", "experimental": "as §1, §2"}, "AsPC1 cells [4]": {"tested_on": "AsPC1 cells", "assay": "Uptake and retention of radiolabelled PARP inhibitors in AsPC1 cells treated with DNA-damaging reagents", "format": "cell-based, human", "conditions": "100 μM, 3 h, retention at 3 h", "experimental": "as §2"}, "breast cancer xenografts": {"tested_on": "breast cancer xenografts", "set-up": "method as in PMID 27841728, PMID 27069769", "conditions": "1 h post-injection; cited from earlier work"}, "[5]": {"set-up": "method as in PMID 25895168, PMID 26337803, PMID 27689533", "conditions": "relatively low tumour uptake; cited from earlier work"}, "PSN1 xenografts [6]": {"tested_on": "PSN1 xenografts", "set-up": "method as in PMID 30389822", "conditions": "cited from earlier work"}, "PSN1 xenografts [7]": {"tested_on": "PSN1 xenografts", "assay": "Autoradiography of PSN1 tumour sections", "format": "in vivo, Balb/c nu/nu mice", "conditions": "unlabelled drug 0.5 mg co-administered", "experimental": "Ex vivo localisation of [^18F]rucaparib in PSN1 xenografts was determined using autoradiography of tumour sections (10 μm). Uptake in the same tumour sections was compared to immunohistochemistry staining for PARP1, 2 and 3. Full details of procedures and protocols are provided in Supplemental Information.\nPSN1 xenograft tissues were harvested and immediately flash-frozen using liquid nitrogen, and sectioned (10 µm) using a Leica CM1950 cryostat. Tissue sections were thaw-mounted onto Superfrost PLUS glass microscope slides (Menzel-Glaser, Thermo Scientific) and allowed to dry briefly at room temperature (RT). The slides were then fixed in 10% neutral buffered formalin […] (NBF) for 10 min at RT, dried, and exposed to a storage phosphor screen (PerkinElmer, Super Resolution, 12.5 x 25.2 cm) in a standard X-ray cassette for 15 h at 4 °C. The phosphor screen was then imaged using a Cyclone® Plus Storage Phosphor System (PerkinElmer)."}, "PSN1 cells [8]": {"tested_on": "PSN1 cells", "assay": "Cell retention of [18F]rucaparib and [18F]olaparib in PSN1 cells", "format": "cell-based, human", "conditions": "for Efflux: fraction exiting cells: in the first 10–30 min, biphasic efflux", "experimental": "(§3) AsPC1 (1 × 10^5 cells/well) and PSN1 cells (7.5 × 10^4 cells/well) were exposed to [^18F]rucaparib (100 kBq, 4.8 GBq/μmol; [^TotalF]rucaparib final concentration: 258 nM) or [^18F]olaparib (400 kBq, 2.8 GBq/μmol: [^TotalF]olaparib final concentration: 242 nM) in 24-well plates at 37 °C for 30 min. Cell culture medium was removed, and cells were washed with PBS, followed by the addition of fresh medium (300 μL). Cells were then further incubated at 37 °C. Cell culture medium was removed, and cells were washed with PBS at different times (0–3 h). Cells were lysed using RIPA buffer for 15 min at room temperature, and the amount of ^18F in the cell lysates was measured as above."}, "AsPC1 cells [9]": {"tested_on": "AsPC1 cells", "assay": "Cell retention of [18F]rucaparib and [18F]olaparib in AsPC1 cells", "format": "cell-based, human", "conditions": "for Efflux: fraction exiting cells: in the first 10–30 min, biphasic efflux", "experimental": "as §3"}, "pancreatic cancer": {"tested_on": "pancreatic cancer", "conditions": "phase II, pancreatic cancer patients with BRCA1/2 and PALB2 variants; cited from earlier work"}, "SW620 cells": {"tested_on": "SW620 cells", "set-up": "method as in PMID 24556618", "conditions": "cited from earlier work"}, "[10]": {"set-up": "method as in PMID 24216281, PMID 26438157", "conditions": "10 mg/kg, administered orally or intraperitoneally; cited from earlier work"}}}
{"smiles": "Cn1nnc2c(C(N)=O)ncn2c1=O", "note": "[TMZ, temozolomide]", "values": [{"measurement": "Upregulation of PARP proteins", "setting": "AsPC1 cells [1]; 100 μM, flow cytometry", "result": "< 10", "unit": "%"}, {"measurement": "γH2AX expression", "setting": "AsPC1 cells [1]; 100 μM, not statistically significant in AsPC1 cells", "result": "increasing trend"}, {"measurement": "Cell association and retention of [TotalF]rucaparib and [TotalF]olaparib after exposure to DNA-damaging reagent", "setting": "PSN1 cells [2]", "result": "increased"}, {"measurement": "γH2AX expression", "setting": "PSN1 cells [3]; 100 μM", "result": "increasing trend"}, {"measurement": "Upregulation of PARP proteins", "setting": "PSN1 cells [3]; 100 μM, flow cytometry", "result": "< 10", "unit": "%"}, {"measurement": "Cell association and retention of [TotalF]rucaparib and [TotalF]olaparib after exposure to DNA-damaging reagent", "setting": "AsPC1 cells [4]", "result": "increased"}]}
{"smiles": "O=C1NCCn2c(-c3ccc(OCC[18F])cc3)nc3cccc1c32", "note": "[[^18F]FTT]", "values": [{"measurement": "Tumour-to-muscle (T/M) ratio", "setting": "breast cancer xenografts", "result": "1.2–1.9"}]}
{"smiles": "CC1=CC(C)=[N+]2C1=Cc1ccc(CCC(=O)N3CCN(C(=O)c4cc(Cc5n[nH]c(=O)c6ccccc56)ccc4F)CC3)n1[B-]2(F)[18F]", "note": "(centres unmarked) [[^18F]PARPi-FL]", "values": [{"measurement": "Tumour uptake", "setting": "[5]", "result": "< 1", "unit": "%ID/g"}]}
{"smiles": "O=C(c1cc(Cc2n[nH]c(=O)c3ccccc23)ccc1[18F])N1CCN(C(=O)C2CC2)CC1", "note": "[[^18F]olaparib]", "values": [{"measurement": "Tumour uptake", "setting": "PSN1 xenografts [6]; PSN1 xenografts, 1 h post-injection", "result": "3.16 ± 0.36", "unit": "%ID/g"}, {"measurement": "Weighted blood half-life", "setting": "PSN1 xenografts [6]; same xenograft mice", "result": 32.3, "unit": "min"}]}
{"smiles": "O=C(c1cc(Cc2n[nH]c(=O)c3ccccc23)ccc1F)N1CCN(C(=O)C2CC2)CC1", "note": "[olaparib]", "values": [{"measurement": "18F signal of [18F]rucaparib in tumour sections from treated tumours", "setting": "PSN1 xenografts [7]", "result": "significantly reduced"}, {"measurement": "Efflux: fraction exiting cells", "setting": "PSN1 cells [8]", "result": "more than 50%"}, {"measurement": "Efflux: fraction exiting cells", "setting": "AsPC1 cells [9]", "result": "more than 50%"}]}
{"smiles": "CNCc1ccc(-c2[nH]c3cc(F)cc4c3c2CCNC4=O)cc1", "note": "[rucaparib]", "values": [{"measurement": "Fraction of patients who benefited from treatment", "setting": "pancreatic cancer", "result": "two-thirds"}, {"measurement": "18F signal of [18F]rucaparib in tumour sections from treated tumours", "setting": "PSN1 xenografts [7]", "result": "significantly reduced"}, {"measurement": "Weighted cellular efflux half-life", "setting": "PSN1 cells [8]", "result": "43.9 ± 3.2", "unit": "min"}, {"measurement": "Efflux: fraction exiting cells", "setting": "PSN1 cells [8]", "result": "more than 50%"}, {"measurement": "PARP1 expression (MFI) after exposure of PARP inhibitors", "setting": "AsPC1 cells [1]; 10 μM, flow cytometry", "result": "upregulated"}, {"measurement": "Cellular efflux half-life", "setting": "SW620 cells", "result": 20, "unit": "min"}, {"measurement": "Blood half-life", "setting": "[10]", "result": "84 to 90", "unit": "min"}, {"measurement": "PARP1 expression (MFI) after exposure of PARP inhibitors", "setting": "PSN1 cells [3]; 10 μM, flow cytometry", "result": "upregulated"}, {"measurement": "Weighted cellular efflux half-life", "setting": "AsPC1 cells [9]", "result": "49.9 ± 6.8", "unit": "min"}, {"measurement": "Efflux: fraction exiting cells", "setting": "AsPC1 cells [9]", "result": "more than 50%"}]}
